Laboratory results as given in patent publication US20240059671A1, “TYROSINE KINASE 2 (TYK2) DEGRADATION COMPOUNDS AND METHODS OF USE” (CULLGEN (SHANGHAI), INC., priority 2020, published 2024).

Biological target: TYK2 (Homo sapiens, UniProt P29597)
Test: TYK2 protein degradation in NOMO-1 cells by immunoblotting
Format: cell-based
Design: endogenous in cells
Conditions: NOMO-1 cells
Outline: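 Read-out was densitometry of chemiluminescent TYK2 immunoblot bands from RIPA lysates after SDS-PAGE. Before lysis, NOMO-1 cells cultured in RPMI 1640 plus 10% FBS were treated for 16 h at 0.1, 1, 10, 100 and 1000 nM.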

TYK2, sequence (P29597 whole entry): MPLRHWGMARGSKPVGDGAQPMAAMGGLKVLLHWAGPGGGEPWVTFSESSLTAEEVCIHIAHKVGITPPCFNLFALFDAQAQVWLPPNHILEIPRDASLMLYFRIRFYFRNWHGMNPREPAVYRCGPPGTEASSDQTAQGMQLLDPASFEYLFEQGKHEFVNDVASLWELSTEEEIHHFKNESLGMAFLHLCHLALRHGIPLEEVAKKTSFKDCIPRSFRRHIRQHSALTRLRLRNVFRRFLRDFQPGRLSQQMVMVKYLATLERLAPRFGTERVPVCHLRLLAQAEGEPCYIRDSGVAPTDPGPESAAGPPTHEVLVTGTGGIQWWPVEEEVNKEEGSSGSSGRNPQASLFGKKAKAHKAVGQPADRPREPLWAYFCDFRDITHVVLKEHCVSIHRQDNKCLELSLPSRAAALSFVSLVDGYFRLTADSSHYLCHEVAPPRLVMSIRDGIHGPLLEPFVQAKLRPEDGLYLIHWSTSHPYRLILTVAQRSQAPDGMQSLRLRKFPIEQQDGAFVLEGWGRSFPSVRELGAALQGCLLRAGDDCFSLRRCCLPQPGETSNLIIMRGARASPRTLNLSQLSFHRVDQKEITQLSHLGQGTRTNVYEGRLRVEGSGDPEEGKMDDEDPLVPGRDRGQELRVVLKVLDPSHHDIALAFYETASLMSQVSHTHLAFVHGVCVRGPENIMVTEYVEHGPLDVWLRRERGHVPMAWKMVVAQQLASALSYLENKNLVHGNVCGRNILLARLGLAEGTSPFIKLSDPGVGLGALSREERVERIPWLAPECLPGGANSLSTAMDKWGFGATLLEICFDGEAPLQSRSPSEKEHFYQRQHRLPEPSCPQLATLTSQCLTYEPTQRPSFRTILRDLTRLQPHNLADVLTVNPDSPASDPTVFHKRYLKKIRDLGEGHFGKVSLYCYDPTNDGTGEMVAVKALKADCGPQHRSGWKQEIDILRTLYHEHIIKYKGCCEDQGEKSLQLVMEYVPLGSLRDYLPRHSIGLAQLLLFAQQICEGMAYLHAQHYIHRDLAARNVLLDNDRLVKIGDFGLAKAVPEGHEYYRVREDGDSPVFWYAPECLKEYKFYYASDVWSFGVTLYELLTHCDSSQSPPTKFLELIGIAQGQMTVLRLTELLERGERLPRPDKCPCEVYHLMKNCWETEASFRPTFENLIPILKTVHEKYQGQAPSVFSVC

| Structure (SMILES) | TYK2 Degradation (NOMO-1, 100 nM) | TYK2 Degradation (NOMO-1, 10 nM) |
| --- | --- | --- |
| CNC(=O)c1nnc(Nc2ccc(N3CCN(C(=O)CCCCCCCCC(=O)N[C@H](C(=O)N4C[C@H](O)C[C@H]4C(=O)N[C@@H](C)c4ccc(-c5scnc5C)cc4)C(C)(C)C)CC3)cn2)cc1Nc1cccc(-c2ncn(C)n2)c1OC [CPD-114, 6-((5-(4-(10-(((S)-1-((2S,4R)-4-hydroxy-2-(((S)-1-(4-(4-methylthiazol-5-yl)phenyl)ethyl)carbamoyl)pyrrolidin-1-yl)-3,3-dimethyl-1-oxobutan-2-yl)amino)-10-oxodecanoyl)piperazin-1-yl)pyridin-2-yl)amino)-4-((2-methoxy-3-(1-methyl-1H-1,2,4-triazol-3-yl)phenyl)amino)-N-methylpyridazine-3-carboxamide] | A (A: ≥60% TYK2 degradation) | A (A: ≥60% TYK2 degradation) |
| CNC(=O)c1cnc(Nc2ccc(N3CCN(C(=O)CCCCCCC(=O)N[C@H](C(=O)N4C[C@H](O)C[C@H]4C(=O)N[C@@H](C)c4ccc(-c5scnc5C)cc4)C(C)(C)C)CC3)cn2)cc1Nc1ccccc1OC [CDD-170, 6-((5-(4-(8-(((S)-1-((2S,4R)-4-hydroxy-2-(((S)-1-(4-(4-methylthiazol-5-yl)phenyl)ethyl)carbamoyl)pyrrolidin-1-yl)-3,3-dimethyl-1-oxobutan-2-yl)amino)-8-oxooctanoyl)piperazin-1-yl)pyridin-2-yl)amino)-4-((2-methoxyphenyl)amino)-N-methylnicotinamide] | A (A: ≥60% TYK2 degradation) | B (B: <60% TYK2 degradation, and >20% TYK2 degradation) |
| CNC(=O)c1nnc(Nc2ccc(C#CC3CCN(C(=O)CCCCCCC(=O)N[C@H](C(=O)N4C[C@H](O)C[C@H]4C(=O)N[C@@H](C)c4ccc(-c5scnc5C)cc4)C(C)(C)C)CC3)cn2)cc1Nc1cccc(-c2ncn(C)n2)c1OC [CPD-119, 6-((5-((1-(8-(((S)-1-((2S,4R)-4-Hydroxy-2-(((S)-1-(4-(4-methylthiazol-5-yl)phenyl)ethyl)carbamoyl)pyrrolidin-1-yl)-3,3-dimethyl-1-oxobutan-2-yl)amino)-8-oxooctanoyl)piperidin-4-yl)ethynyl)pyridin-2-yl)amino)-4-((2-methoxy-3-(1-methyl-1H-1,2,4-triazol-3-yl)phenyl)amino)-N-methylpyridazine-3-carboxamide] | A (A: ≥60% TYK2 degradation) |  |
| CNC(=O)c1nnc(Nc2ccc(N3CCN(C(=O)CCCCCCC(=O)N[C@H](C(=O)N4C[C@H](O)C[C@H]4C(=O)NCc4ccc(C#N)cn4)C(C)(C)C)CC3)cn2)cc1Nc1cccc(-c2ncn(C)n2)c1OC [CDD-172, 6-((5-(4-(8-(((S)-1-((2S,4R)-2-(((5-cyanopyridin-2-yl)methyl)carbamoyl)-4-hydroxypyrrolidin-1-yl)-3,3-dimethyl-1-oxobutan-2-yl)amino)-8-oxooctanoyl)piperazin-1-yl)pyridin-2-yl)amino)-4-((2-methoxy-3-(1-methyl-1H-1,2,4-triazol-3-yl)phenyl)amino)-N-methylpyridazine-3-carboxamide] | C (C: ≤20% TYK2 degradation) | C (C: ≤20% TYK2 degradation) |
| CNC(=O)c1nnc(Nc2ccc(CNC(=O)CCCCCCC(=O)N[C@H](C(=O)N3C[C@H](O)C[C@H]3C(=O)N[C@@H](C)c3ccc(-c4scnc4C)cc3)C(C)(C)C)cn2)cc1Nc1cccc(-c2ncn(C)n2)c1OC [CPD-131, N1-((S)-1-((2S,4R)-4-hydroxy-2-(((S)-1-(4-(4-methylthiazol-5-yl)phenyl)ethyl)carbamoyl)pyrrolidin-1-yl)-3,3-dimethyl-1-oxobutan-2-yl)-N8-((6-((5-((2-methoxy-3-(1-methyl-1H-1,2,4-triazol-3-yl)phenyl)amino)-6-(methylcarbamoyl)pyridazin-3-yl)amino)pyridin-3-yl)methyl)octanediamide] | A (A: ≥60% TYK2 degradation) | A (A: ≥60% TYK2 degradation) |
| CNC(=O)c1nnc(Nc2ccc(C#CC3CN(C(=O)CCCC(=O)N[C@H](C(=O)N4C[C@H](O)C[C@H]4C(=O)N[C@@H](C)c4ccc(-c5scnc5C)cc4)C(C)(C)C)C3)cn2)cc1Nc1cccc(-c2ncn(C)n2)c1OC [CPD-135, 6-((5-((1-(5-(((S)-1-((2S,4R)-4-Hydroxy-2-(((S)-1-(4-(4-methylthiazol-5-yl)phenyl)ethyl)carbamoyl)pyrrolidin-1-yl)-3,3-dimethyl-1-oxobutan-2-yl)amino)-5-oxopentanoyl)azetidin-3-yl)ethynyl)pyridin-2-yl)amino)-4-((2-methoxy-3-(1-methyl-1H-1,2,4-triazol-3-yl)phenyl)amino)-N-methylpyridazine-3-carboxamide] | A (A: ≥60% TYK2 degradation) | B (B: <60% TYK2 degradation, and >20% TYK2 degradation) |

The next lines start with results.

| TYK2 Degradation (NOMO-1, 100 nM) | Structure (SMILES) | TYK2 Degradation (NOMO-1, 10 nM) |
| --- | --- | --- |
| A (A: ≥60% TYK2 degradation) | CNC(=O)c1nnc(Nc2ccc(N3CCN(C4CCN(C(=O)CCCCCCC(=O)N[C@H](C(=O)N5C[C@H](O)C[C@H]5C(=O)N[C@@H](C)c5ccc(-c6scnc6C)cc5)C(C)(C)C)CC4)CC3)cn2)cc1Nc1cccc(-c2ncn(C)n2)c1OC [CPD-149, 6-((5-(4-(1-(8-(((S)-1-((2S,4R)-4-Hydroxy-2-(((S)-1-(4-(4-methylthiazol-5-yl)phenyl)ethyl)carbamoyl)pyrrolidin-1-yl)-3,3-dimethyl-1-oxobutan-2-yl)amino)-8-oxooctanoyl)piperidin-4-yl)piperazin-1-yl)pyridin-2-yl)amino)-4-((2-methoxy-3-(1-methyl-1H-1,2,4-triazol-3-yl)phenyl)amino)-N-methylpyridazine-3-carboxamide] |  |
| A (A: ≥60% TYK2 degradation) | CNC(=O)c1nnc(Nc2ccc(CNC(=O)CCCC(=O)N[C@H](C(=O)N3C[C@H](O)C[C@H]3C(=O)N[C@@H](C)c3ccc(-c4scnc4C)cc3)C(C)(C)C)cn2)cc1Nc1cccc(-c2ncn(C)n2)c1OC [CPD-136, N1-((S)-1-((2S,4R)-4-Hydroxy-2-(((S)-1-(4-(4-methylthiazol-5-yl)phenyl)ethyl)carbamoyl)pyrrolidin-1-yl)-3,3-dimethyl-1-oxobutan-2-yl)-N5-((6-((5-((2-methoxy-3-(1-methyl-1H-1,2,4-triazol-3-yl)phenyl)amino)-6-(methylcarbamoyl)pyridazin-3-yl)amino)pyridin-3-yl)methyl)glutaramide] | B (B: <60% TYK2 degradation, and >20% TYK2 degradation) |
| A (A: ≥60% TYK2 degradation) | CNC(=O)c1nnc(Nc2ccc(C(=O)NCCCCCC(=O)N[C@H](C(=O)N3C[C@H](O)C[C@H]3C(=O)N[C@@H](C)c3ccc(-c4scnc4C)cc3)C(C)(C)C)cn2)cc1Nc1cccc(-c2ncn(C)n2)c1OC [CPD-141, 6-((5-((6-(((S)-1-((2S,4R)-4-Hydroxy-2-(((S)-1-(4-(4-methylthiazol-5-yl)phenyl)ethyl)carbamoyl)pyrrolidin-1-yl)-3,3-dimethyl-1-oxobutan-2-yl)amino)-6-oxohexyl)carbamoyl)pyridin-2-yl)amino)-4-((2-methoxy-3-(1-methyl-1H-1,2,4-triazol-3-yl)phenyl)amino)-N-methylpyridazine-3-carboxamide] | B (B: <60% TYK2 degradation, and >20% TYK2 degradation) |
